Assays:
[1] = test system: TNF-α; experiment: Whole bovine blood assay, LPS-induced TNF-α; type: cell-based; settings: fresh whole bovine blood, LPS stimulant
In short: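 Fresh heparinized bovine whole blood was preincubated with compound 4 h at 37 °C, then stimulated with LPS (final 1 μg/mL) for 18 h at 37 °C. Plasma TNF-α was quantified by MSD U-Plex chemiluminescent immunoassay, normalized to total protein (BCA), and IC50 taken for LPS-induced TNF-α inhibition.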

[2] = test system: IL-1β; experiment: Whole bovine blood assay, LPS-induced IL-1β (inhibition / overstimulation); type: cell-based; settings: drug concentration giving overstimulation (OS) of LPS-induced IL-1β
Experimental: Whole Blood Assay-Fresh whole bovine blood samples were collected into heparinized vacutainer tubes. Assay plates were prepared with 25 μL of drug diluted in PBS at varying concentration in 96 round bottom wells, then 225 μL of blood was added and plates incubated at 37° C. for 4 hours. Cells were stimulated with LPS (or PBS for controls) by adding 25 μL to the plates at a final concentration of 1 μg/mL and incubated at 37° C. for 18 hours. To collect plasma, plates were centrifuged at 2,000×g for 10 minutes and 100 μL of supernatant was transferred to a 96 well polypropylene plate that was sealed and stored at −80° C. Samples were assayed for cytokines using the Meso Scale Discovery (MSD) platform (described below). This same MSD platform was used to assess cytokines in the plasma collected directly from drug treated animals.
Cytokine Detection—An MSD U-Plex cytokine assay was developed following the MSD U-Plex protocol guide and included biotinylated capture antibodies against: bovine Interleukin (IL)-1β (Biorad), bovine IL-6 (R&D Systems) and bovine tumor necrosis factor (TNF)-α (R&D Systems). The anti-IL-1β antibody was biotinylated using EZ-Link Sulfo-NHS-Biotin (Thermo Scientific) at a challenge ratio of 1:20 according to manufacturer instructions. Assay calibrators (Kingfisher) were diluted to a concentration of […] in control lithium heparin plasma, followed by 4-fold serial dilutions into plasma. The detection antibodies were sulfo-tagged following the MSD quick guide conjugation protocol using a challenge ratio of 1:20. Antibodies were used at the following concentrations: anti-IL-1β at 1 μg/mL, anti-IL-6 at 1 μg/mL and anti-TNF-α at 0.5 μg/mL. Cytokines were quantified according to manufacturer's instructions using a chemiluminescent readout. In brief, 0.5 mL of all biotinylated antibodies were diluted to 10 μg/mL with Diluent 100 and paired to their respective linkers by adding 750 μL of supplied Linker solution and incubated for 30 minutes followed by addition of Stop solution for another 30 minutes. The linked antibodies were then diluted 10-fold into Stop solution. Plates were coated by adding 50 μL of antibody solutions per well and incubated covered and shaking for 1 hour at room temperature. Plates were washed three times with PBS/Tween20 prior to samples or standards being added at 30 μL per well and incubated as above. Plates were washed three times before detection antibodies were added along with 2% goat and rabbit serum to block and incubated same as above. Plates were washed a further three times before addition of 150 μL 2X Read buffer and read immediately on the SI6000 instrument (MSD). For soluble protein levels, a BCA protein kit (Thermofisher) was used. The cytokine concentrations (pg/mL) were normalized to the total protein levels for each sample. [Bassel et. al., BMC Veterinary Research (2020) 16:168]
Therefore, a fresh whole bovine blood assay was developed with LPS as a stimulant (TLR-4 agonist) and with IL-1β and TNF-α as the read-out. Compounds of the invention were evaluated against a positive control for their ability to inhibit LPS-induced IL-1β and TNF-α as an overall evaluation of relative potency and modulation of target pathways.
For M9, the top dose of 500 μM was not high enough to determine an overstimulation of IL-1 B which was recorded as not applicable (n/a). The enhanced response indicates increased concentration of IL-1β cytokine at the drug concentration indicated. This is generally observed when compounds are out of range (high concentration) and stimulate a cellular toxicity signal. Further data supporting this hypothesis includes murine studies using a P. multocida infection in mice.
TNFα is a cell signaling protein, cytokine, that plays a key role in both acute and chronic inflammation. […]

Structure (SMILES)	IC50 ([1]; top drug concentration 250 μM) [µM]	IC50 ([1]; dose of 500 μM (footnote ^)) [µM]	minimal effective concentration ([2]; top concentration 250 μM) [µM]	minimal effective concentration ([2]; dose of 500 μM (footnote ^)) [µM]
CCCNC[C@]1(O)[C@H](C)O[C@@H](O[C@H]2[C@H](C)[C@@H](O[C@@H]3O[C@H](C)C[C@H](N(C)S(=O)(=O)c4ccc(-n5cccn5)cc4)[C@H]3O)[C@](C)(O)C[C@@H](C)CN[C@H](C)[C@@H](O)[C@](C)(O)[C@@H](CC)OC(=O)[C@@H]2C)C[C@@]1(C)OC [Example B-19]	30	–	16	–
CCCNC[C@]1(O)[C@H](C)O[C@@H](O[C@H]2[C@H](C)[C@@H](O[C@@H]3O[C@H](C)C[C@H](N(C)S(=O)(=O)c4cn(C)cn4)[C@H]3O)[C@](C)(O)C[C@@H](C)CN[C@H](C)[C@@H](O)[C@](C)(O)[C@@H](CC)OC(=O)[C@@H]2C)C[C@@]1(C)OC [Example B-16]	> 250	–	>250	–
CCCNC[C@]1(O)[C@H](C)O[C@@H](O[C@H]2[C@H](C)[C@@H](O[C@@H]3O[C@H](C)C[C@H](N(C)S(=O)(=O)c4ccc(C#N)cc4)[C@H]3O)[C@](C)(O)C[C@@H](C)CN[C@H](C)[C@@H](O)[C@](C)(O)[C@@H](CC)OC(=O)[C@@H]2C)C[C@@]1(C)OC [Example B-13]	> 250	–	100	–
CCCNC[C@]1(O)[C@H](C)O[C@@H](O[C@H]2[C@H](C)[C@@H](O[C@@H]3O[C@H](C)C[C@H](N(C)S(C)(=O)=O)[C@H]3O)[C@](C)(O)C[C@@H](C)CN[C@H](C)[C@@H](O)[C@](C)(O)[C@@H](CC)OC(=O)[C@@H]2C)C[C@@]1(C)OC [Example B-59]	150	–	57	–
CC[C@H]1OC(=O)[C@H](C)[C@@H](O[C@H]2C[C@@](C)(OC)[C@](O)(CNCCCN(C)C)[C@H](C)O2)[C@H](C)[C@@H](O[C@@H]2O[C@H](C)C[C@H](N(C)S(=O)(=O)Nc3ccc(C(F)(F)F)cc3)[C@H]2O)[C@](C)(O)C[C@@H](C)CN[C@H](C)[C@@H](O)[C@]1(C)O [Example B-74]	33	–	16	–
CCCNC[C@]1(O)[C@H](C)O[C@@H](O[C@H]2[C@H](C)[C@@H](O[C@@H]3O[C@H](C)C[C@H](N(C)S(=O)(=O)CC4CC4)[C@H]3O)[C@](C)(O)C[C@@H](C)CN[C@H](C)[C@@H](O)[C@](C)(O)[C@@H](CC)OC(=O)[C@@H]2C)C[C@@]1(C)OC [Example B-10]	33	–	15	–
CCCNC[C@]1(O)[C@H](C)O[C@@H](O[C@H]2[C@H](C)[C@@H](O[C@@H]3O[C@H](C)C[C@H](N(C)S(=O)(=O)c4ccccc4)[C@H]3O)[C@](C)(O)C[C@@H](C)CN[C@H](C)[C@@H](O)[C@](C)(O)[C@@H](CC)OC(=O)[C@@H]2C)C[C@@]1(C)OC [Example B-7]	25	–	40	–
CCCNC[C@]1(O)[C@H](C)O[C@@H](O[C@H]2[C@H](C)[C@@H](O[C@@H]3O[C@H](C)C[C@H](N(C)S(=O)(=O)c4cn(C)c(C)n4)[C@H]3O)[C@](C)(O)C[C@@H](C)CN[C@H](C)[C@@H](O)[C@](C)(O)[C@@H](CC)OC(=O)[C@@H]2C)C[C@@]1(C)OC [Example B-5]	> 250	–	>250	–
CC[C@H]1OC(=O)[C@H](C)[C@@H](O[C@H]2C[C@@](C)(OC)[C@](O)(CNCCOC)[C@H](C)O2)[C@H](C)[C@@H](O[C@@H]2O[C@H](C)C[C@H](N(C)S(=O)(=O)c3ccc(Cl)cc3)[C@H]2O)[C@](C)(O)C[C@@H](C)CN[C@H](C)[C@@H](O)[C@]1(C)O [Example B-36]	29	–	16	–
CCCNC[C@]1(O)[C@H](C)O[C@@H](O[C@H]2[C@H](C)[C@@H](O[C@@H]3O[C@H](C)C[C@H](N(C)S(=O)(=O)c4ccc(F)nc4)[C@H]3O)[C@](C)(O)C[C@@H](C)CN[C@H](C)[C@@H](O)[C@](C)(O)[C@@H](CC)OC(=O)[C@@H]2C)C[C@@]1(C)OC [Example B-6]	24	–	16	–
CCCNC[C@]1(O)[C@H](C)O[C@@H](O[C@H]2[C@H](C)[C@@H](O[C@@H]3O[C@H](C)C[C@H](N(C)S(N)(=O)=O)[C@H]3O)[C@](C)(O)C[C@@H](C)CN(CCC)[C@H](C)[C@@H](O)[C@](C)(O)[C@@H](CC)OC(=O)[C@@H]2C)C[C@@]1(C)OC [Example B-158]	102	–	>250	–
CCCNC[C@]1(O)[C@H](C)O[C@@H](O[C@H]2[C@H](C)[C@@H](O[C@@H]3O[C@H](C)C[C@H](N(C)S(=O)(=O)c4ccc(OC)cc4)[C@H]3O)[C@](C)(O)C[C@@H](C)CN[C@H](C)[C@@H](O)[C@](C)(O)[C@@H](CC)OC(=O)[C@@H]2C)C[C@@]1(C)OC [Example B-18]	–	15	–	32
CCCNC[C@]1(O)[C@H](C)O[C@@H](O[C@H]2[C@H](C)[C@@H](O[C@@H]3O[C@H](C)C[C@H](N(C)S(=O)(=O)c4c(C)noc4C)[C@H]3O)[C@](C)(O)C[C@@H](C)CN[C@H](C)[C@@H](O)[C@](C)(O)[C@@H](CC)OC(=O)[C@@H]2C)C[C@@]1(C)OC [Example B-4]	–	–	40	–

More lines, in order of falling IC50 ([1]; top drug concentration 250 μM), values ahead:

IC50 ([1]; top drug concentration 250 μM) [µM]	IC50 ([1]; dose of 500 μM (footnote ^)) [µM]	Structure (SMILES)	minimal effective concentration ([2]; top concentration 250 μM) [µM]	minimal effective concentration ([2]; dose of 500 μM (footnote ^)) [µM]
23	–	CCCN1C[C@H](C)C[C@@](C)(O)[C@H](O[C@@H]2O[C@H](C)C[C@H](N(C)S(N)(=O)=O)[C@H]2O)[C@@H](C)[C@H](O[C@H]2C[C@@](C)(OC)[C@](O)(CN3CCCCC3)[C@H](C)O2)[C@@H](C)C(=O)O[C@H](CC)[C@@](C)(O)[C@H](O)[C@H]1C [Example C-17]	250	–
22	–	CC[C@H]1OC(=O)[C@H](C)[C@@H](O)[C@H](C)[C@@H](O[C@@H]2O[C@H](C)C[C@H](N(C)S(=O)(=O)c3ccccc3)[C@H]2Oc2ccc(OC)cc2)[C@](C)(O)C[C@@H](C)CN(C)[C@H](C)[C@@H](O)[C@]1(C)O [Example A-1]	16	–
22	–	CC[C@H]1OC(=O)[C@H](C)[C@@H](O[C@H]2C[C@@](C)(OC)[C@](O)(CNCCNC(C)=O)[C@H](C)O2)[C@H](C)[C@@H](O[C@@H]2O[C@H](C)C[C@H](N(C)S(=O)(=O)Nc3ccc(C(F)(F)F)cc3)[C@H]2O)[C@](C)(O)C[C@@H](C)CN[C@H](C)[C@@H](O)[C@]1(C)O [Example B-81]	15	–
17	–	CC[C@H]1OC(=O)[C@H](C)[C@@H](O[C@H]2C[C@@](C)(OC)[C@](O)(CNCCCN3CCCC3=O)[C@H](C)O2)[C@H](C)[C@@H](O[C@@H]2O[C@H](C)C[C@H](N(C)S(=O)(=O)Nc3ccc(C(F)(F)F)cc3)[C@H]2O)[C@](C)(O)C[C@@H](C)CN[C@H](C)[C@@H](O)[C@]1(C)O [Example B-87]	9	–
15	–	CC[C@H]1OC(=O)[C@H](C)[C@@H](O[C@H]2C[C@@](C)(OC)[C@](O)(CN3CCCCC3)[C@H](C)O2)[C@H](C)[C@@H](O[C@@H]2O[C@H](C)C[C@H](N(Cc3cccnc3)S(=O)(=O)Nc3ccc(C(F)(F)F)cc3)[C@H]2O)[C@](C)(O)C[C@@H](C)CN[C@H](C)[C@@H](O)[C@]1(C)O [Example C-39]	6	–
10	–	CC[C@H]1OC(=O)[C@H](C)[C@@H](O)[C@H](C)[C@@H](O[C@@H]2O[C@H](C)C[C@H](N(C)S(=O)(=O)Nc3ccccc3)[C@H]2Oc2ccc(OC)cc2)[C@](C)(O)C[C@@H](C)CN[C@H](C)[C@@H](O)[C@]1(C)O [Example A-36]	4	–
10	–	CC[C@H]1OC(=O)[C@H](C)[C@@H](O)[C@H](C)[C@@H](O[C@H]2O[C@@H](C)C[C@@H](N(C)S(=O)(=O)Nc3ccccc3)[C@@H]2Oc2ccccc2)[C@](C)(O)C[C@@H](C)CN[C@H](C)[C@@H](O)[C@]1(C)O [Example A-4]	4	–

Reference: patent US20250236616A1, “IMMUNOMODULATING AZALIDES” (Zoetis Services LLC, priority 2021, published 2025)
